# Measurements from patent publication US10004809B2, “Precise delivery of therapeutic agents to cell mitochondria for anti-cancer therapy” (UNIVERSITY OF GEORGIA RESEARCH FOUNDATION, INC., priority 2013, dated 2018).
# What was measured:
# Format in all cases: cell-based, Human
# PC3 cells [1] = test: MTT cytotoxicity assay; settings: for IC50: MTT, 72 h incubation
# Method: (§1) The cytotoxic behaviors of MITO-DCA, TPP-DCA, Na-DCA, and TPP-Tris-(OH)3 were evaluated using the MTT assay against PC3, DU145, LNCaP, and MSC cells. Cells (2000 cells/well for PC3, DU145, and MSC cells; 5000 cells/well for LNCaP) were seeded on a 96-well plate in 100 μL of desired medium and incubated for 24 h. The cells were treated with different DCA compounds and TPP-Tris-(OH)3 at varying concentrations and incubated for 72 h at 37° C. The cells were then treated with 20 μL of MTT (5 mg/mL in PBS) for 5 h. The medium was removed, the cells were lysed with 100 μL of DMSO, and the absorbance of the purple tormazan was recorded at 550 nm using a Bio-Tek Synergy HT microplate reader. Each well was performed in triplicate. All experiments were repeated three times. Cytotoxicity was expressed as mean percentage increase relative to the unexposed control±SD. Control values were set at 0% cytotoxicity or 100% cell viability. Cytotoxicity data (where appropriate) was fitted to a sigmoidal curve and a three parameters logistic model used to calculate the IC50, which is the concentration of chemotherapeutics causing 50% inhibition in comparison to untreated controls. The mean IC50 is the concentration of agent that reduces cell growth by 50% under the experimental conditions and is the average from at least three independent measurements that were reproducible and statistically significant. The IC50 values were reported at ±99% confidence intervals. This analysis was performed with GraphPad Prism (San Diego, U.S.A).
# DU145 cells = test: MTT cytotoxicity assay; settings: for IC50: MTT, 72 h incubation
# Method: as §1
# LNCaP cells = test: MTT cytotoxicity assay; settings: for IC50: MTT, 72 h incubation
# Method: as §1
# MSC cells = test: Annexin V/PI apoptosis detection by flow cytometry
# Method: In order to determine whether the enhanced activity of MITO-DCA upon targeting this compound to the mitochondria of cells was due to apoptosis rather than necrosis, an ALEXA FLUOR™ 488-Annexin-V and propidium iodide (PI) cell staining in PC3 and MSC cells was carried out and data were analyzed using flow cytometry (FIG. 4B). As controls, etoposide treated cells were used as early apoptosis population and H2O2 treated cells were marked as late apoptotic or necrotic population. […] There were no late apoptotic or necrotic cells observed with these compounds.
# PC3 and MSC cells were seeded at a density of 1×10^6 cells/mL on each well of a six well plate and allowed to grow overnight. Cells were treated with 50 μM Na-DCA, 150 μM TPP-DCA, and 150 μM MITO-DCA for 12 h at 37° C. As positive controls, etoposide (100 μM, incubation time: 12 h) for apoptosis and H2O2 (1 mM, incubation time: 45 min) for necrosis were used. The cells were trypsinized, repeatedly washed, and centrifuged at 1,800 RPM for 3 min, and the supernatants were discarded. Cell density was determined and cells were resuspended in 1× annexin-binding buffer to ˜1×10^6 cells/mL preparing a sufficient volume to have 100 µL per assay. To 100 μL of cell suspension, 5 μL ALEXA FLUOR™ 488 annexin V and 1 µL 100 μg/mL PI working solution were added and incubated for 15 min at room temperature. After the incubation period, 400 μL 1× annexin-binding buffer was added to each sample, samples were gently mixed keeping the samples on ice and the samples were analyzed on the flow cytometer immediately.
# PC3 cells [2] = test: JC-1 assay of mitochondrial membrane potential (Δψm), live cell imaging; settings: for JC-1 Green:Red fluorescence ratio: 6 h
# Description: An early indication of the initiation of cellular apoptosis is the collapse in the electrochemical gradient across the mitochondrial membrane, as measured by the change in the Δψm (Perry et al., BioTechniques 50:98-115, 2011). […] The potential-sensitive color shift is due to the concentration dependent formation of red fluorescent “J aggregates.” Mitochondrial depolarization is indicated by an increase in the green/red fluorescence intensity ratio. Live cell imaging of prostate cancer (PCa) PC3 cells treated with Na-DCA (150 μM), TPP-DCA (150 μM), or MITO-DCA (50 μM), followed by staining with JC-1, and a comparative analysis of the JC-1 green/red fluorescence ratio from PC3 cells in response to these three DCA analogues are represented in FIG. 3. […] Quantification of fluorescence intensities was carried out using ImageJ and the corrected total cell fluorescence (CTCF) values are represented as histograms (FIG. 3).
# PC3 cells were cultured on a live cell imaging glass bottom dish at a density of 1×10^6 cells/mL and allowed to grow overnight at 37° C. Cells were treated with 150 μM Na-DCA, 150 μM TPP-DCA, and 50 μM MITO-DCA for 6 h at 37° C. A solution of JC-1 reagent (10 μg/mL in RPMI) was added and incubation was carried out at 37° C. for 20 min. The cells were washed 3 times with PBS, and live cell imaging was performed in phenol red free RPMI media.
Structure (SMILES),IC50 (PC3 cells [1]) [µM],"Activity relative to Na-DCA (PC3 cells [1]; PC3 cells, from IC50)","Activity relative to Na-DCA (DU145 cells; DU145 cells, from IC50)",IC50 (DU145 cells) [µM],"Activity relative to Na-DCA (LNCaP cells; LNCaP cells, from IC50)",IC50 (LNCaP cells) [µM],Apoptosis (annexin V/PI) (MSC cells; 50 μM),Change in Δψm (JC-1 imaging) (PC3 cells [2]; 50 μM),JC-1 Green:Red fluorescence ratio (PC3 cells [2]; 50 μM),"Times less active than MITO-DCA (PC3 cells [1]; PC3 cells, from IC50) [times]","Times less active than MITO-DCA (DU145 cells; DU145 cells, from IC50) [times]","Times less active than MITO-DCA (LNCaP cells; LNCaP cells, from IC50) [times]",Apoptosis (annexin V/PI) (MSC cells; 150 μM),Change in Δψm (JC-1 imaging) (PC3 cells [2]; 150 μM),JC-1 Green:Red fluorescence ratio (PC3 cells [2]; 150 μM)
O=C(CCCCC[P+](c1ccccc1)(c1ccccc1)c1ccccc1)NC(COC(=O)C(Cl)Cl)(COC(=O)C(Cl)Cl)COC(=O)C(Cl)Cl.[Br-] [MITO-DCA],17 ± 1,three orders of magnitude more active,three orders of magnitude more activity,42 ± 2,three orders of magnitude more activity,30 ± 6,did not undergo apoptosis,induced marked changes in Δψm,3.96±0.96,,,,,,
O=C(OCCC[P+](c1ccccc1)(c1ccccc1)c1ccccc1)C(Cl)Cl.[Br-] [TPP-DCA],68 ± 1,,,468 ± 49,,302 ± 37,,,,~4,~10,~10,did not undergo apoptosis,showed red fluorescence in most cells,0.49±0.09
